# Test results reported in ChEMBL document CHEMBL1201862, “PubChem BioAssay data set” (2004).
# Activity calls are given as the source filed them.
# Legend:
# [1] = biological target: T1, High affinity choline transporter 1 (Homo sapiens, UniProt Q9GZV3); assay: CHT activators, dose response, cell-based, 10-point CRC, membrane potential dye (AID 602376); type: functional
# T1 sequence (Q9GZV3 whole entry): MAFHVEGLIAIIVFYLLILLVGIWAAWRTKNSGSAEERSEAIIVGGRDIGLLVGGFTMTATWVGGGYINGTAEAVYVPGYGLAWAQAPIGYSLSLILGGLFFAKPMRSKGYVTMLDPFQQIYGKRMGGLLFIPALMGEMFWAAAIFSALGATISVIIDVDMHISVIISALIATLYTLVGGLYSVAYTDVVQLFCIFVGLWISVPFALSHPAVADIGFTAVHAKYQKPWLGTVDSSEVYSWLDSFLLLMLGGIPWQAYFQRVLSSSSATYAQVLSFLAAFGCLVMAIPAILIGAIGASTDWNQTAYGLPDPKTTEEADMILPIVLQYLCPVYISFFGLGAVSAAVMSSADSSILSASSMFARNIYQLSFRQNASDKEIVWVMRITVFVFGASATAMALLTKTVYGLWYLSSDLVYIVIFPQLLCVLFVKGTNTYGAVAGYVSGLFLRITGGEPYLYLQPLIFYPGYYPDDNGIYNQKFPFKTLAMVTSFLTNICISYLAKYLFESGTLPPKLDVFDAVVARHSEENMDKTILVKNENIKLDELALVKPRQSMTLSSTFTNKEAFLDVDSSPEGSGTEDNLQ
# [2] = biological target: T2, Neuropeptide Y receptor type 1 (Homo sapiens, UniProt P25929); type: functional;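 note: HEK293 cells with a CNG channel challenged with NPY then isoproterenol; potency as antagonist that reverses NPY suppression of cAMP signal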
# T2 sequence (P25929 whole entry): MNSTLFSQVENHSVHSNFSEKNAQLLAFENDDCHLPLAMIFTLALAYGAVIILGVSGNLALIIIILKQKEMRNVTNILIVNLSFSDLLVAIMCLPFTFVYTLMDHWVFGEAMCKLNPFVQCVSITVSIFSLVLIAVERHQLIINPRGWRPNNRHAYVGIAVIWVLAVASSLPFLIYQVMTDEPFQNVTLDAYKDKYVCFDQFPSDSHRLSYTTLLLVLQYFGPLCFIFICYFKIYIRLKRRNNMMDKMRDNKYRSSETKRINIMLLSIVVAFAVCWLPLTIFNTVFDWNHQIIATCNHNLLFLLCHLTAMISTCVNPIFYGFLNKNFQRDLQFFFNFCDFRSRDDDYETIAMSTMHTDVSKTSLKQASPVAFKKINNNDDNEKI
# [3] = biological target: T3, Neuropeptide Y receptor type 2 (Homo sapiens, UniProt P49146); type: functional, cell-based;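 note: HEK293 cells expressing the receptor and a CNG channel; stimulus was NPY near EC95 followed by isoproterenol to raise cAMP; antagonist potency measured as restoring cAMP signal that NPY suppresses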
# T3 sequence (P49146 whole entry): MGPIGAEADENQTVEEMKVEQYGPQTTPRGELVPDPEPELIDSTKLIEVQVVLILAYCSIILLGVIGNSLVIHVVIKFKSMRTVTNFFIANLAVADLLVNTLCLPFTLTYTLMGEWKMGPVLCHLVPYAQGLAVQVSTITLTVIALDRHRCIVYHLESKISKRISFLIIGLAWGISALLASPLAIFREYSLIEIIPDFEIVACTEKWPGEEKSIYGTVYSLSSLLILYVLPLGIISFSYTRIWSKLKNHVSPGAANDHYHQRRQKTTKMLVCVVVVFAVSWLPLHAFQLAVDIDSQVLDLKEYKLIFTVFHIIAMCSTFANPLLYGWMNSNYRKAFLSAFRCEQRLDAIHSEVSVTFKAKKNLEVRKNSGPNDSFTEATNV
# [4] = biological target: Protein disulfide-isomerase (Homo sapiens, UniProt P07237); assay: PDI inhibitors, insulin aggregation turbidity, dose response, biochemical, absorbance, cherry-picked samples (AID 602350); type: functional
# Protein disulfide-isomerase, sequence (P07237 whole entry): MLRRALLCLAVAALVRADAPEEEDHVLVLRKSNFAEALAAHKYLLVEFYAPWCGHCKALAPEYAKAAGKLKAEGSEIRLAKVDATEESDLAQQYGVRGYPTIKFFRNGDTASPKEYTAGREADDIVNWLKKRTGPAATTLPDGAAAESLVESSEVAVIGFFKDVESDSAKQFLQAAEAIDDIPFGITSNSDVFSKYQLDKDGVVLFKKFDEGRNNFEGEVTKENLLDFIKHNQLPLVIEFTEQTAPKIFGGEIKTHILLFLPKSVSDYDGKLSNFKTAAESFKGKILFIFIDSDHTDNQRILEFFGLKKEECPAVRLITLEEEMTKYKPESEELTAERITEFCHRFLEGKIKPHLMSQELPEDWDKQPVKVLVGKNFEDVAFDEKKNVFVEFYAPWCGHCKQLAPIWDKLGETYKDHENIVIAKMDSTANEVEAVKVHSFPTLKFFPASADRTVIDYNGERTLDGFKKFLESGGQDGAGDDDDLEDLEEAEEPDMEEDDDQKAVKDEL
# [5] = biological target: Glycogen synthase kinase-3 alpha (Homo sapiens, UniProt P49840); assay: Inhibition of Human GSK-3 alpha Activity Measured in Biochemical System Using Microfluidics - 2063-06_Inhibitor_Dose_DryPowder_Activity_Set2. [Related pubchem assays (depositor defined):AID2709]
# Glycogen synthase kinase-3 alpha, sequence (P49840 whole entry): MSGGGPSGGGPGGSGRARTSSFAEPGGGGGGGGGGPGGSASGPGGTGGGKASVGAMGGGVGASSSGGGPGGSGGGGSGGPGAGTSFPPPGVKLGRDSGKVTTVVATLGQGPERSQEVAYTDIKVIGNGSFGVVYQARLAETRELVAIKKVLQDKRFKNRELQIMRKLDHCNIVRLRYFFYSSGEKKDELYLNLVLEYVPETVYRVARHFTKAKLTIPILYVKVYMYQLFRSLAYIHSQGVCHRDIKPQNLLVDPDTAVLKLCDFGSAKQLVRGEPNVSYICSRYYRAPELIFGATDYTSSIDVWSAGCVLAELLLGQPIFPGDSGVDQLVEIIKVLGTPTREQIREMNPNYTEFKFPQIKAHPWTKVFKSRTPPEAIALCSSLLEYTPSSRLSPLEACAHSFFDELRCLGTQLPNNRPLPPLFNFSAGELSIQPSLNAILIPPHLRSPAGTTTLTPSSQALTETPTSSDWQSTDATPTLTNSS
# Cytochrome P450 2C9 = Cytochrome P450 2C9 (Homo sapiens, UniProt P11712)
# Cytochrome P450 2C9, sequence (P11712 whole entry): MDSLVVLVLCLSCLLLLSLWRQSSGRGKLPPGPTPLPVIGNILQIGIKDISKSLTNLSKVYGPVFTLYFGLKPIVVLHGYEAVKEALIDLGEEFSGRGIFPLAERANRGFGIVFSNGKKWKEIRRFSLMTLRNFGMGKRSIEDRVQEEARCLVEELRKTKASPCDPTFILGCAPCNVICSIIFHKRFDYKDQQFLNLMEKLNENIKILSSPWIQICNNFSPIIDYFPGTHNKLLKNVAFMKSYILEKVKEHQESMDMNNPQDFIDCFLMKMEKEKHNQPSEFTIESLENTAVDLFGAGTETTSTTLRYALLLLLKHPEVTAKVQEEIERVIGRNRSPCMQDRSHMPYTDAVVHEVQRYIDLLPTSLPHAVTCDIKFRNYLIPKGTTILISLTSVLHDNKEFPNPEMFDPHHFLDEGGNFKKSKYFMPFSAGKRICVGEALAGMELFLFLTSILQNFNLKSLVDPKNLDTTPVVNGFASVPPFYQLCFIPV
# Cytochrome P450 2D6 = Cytochrome P450 2D6 (Homo sapiens, UniProt P10635);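 note: CYP2D6 member of a cytochrome P450 panel assay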
# Cytochrome P450 2D6, sequence (P10635 whole entry): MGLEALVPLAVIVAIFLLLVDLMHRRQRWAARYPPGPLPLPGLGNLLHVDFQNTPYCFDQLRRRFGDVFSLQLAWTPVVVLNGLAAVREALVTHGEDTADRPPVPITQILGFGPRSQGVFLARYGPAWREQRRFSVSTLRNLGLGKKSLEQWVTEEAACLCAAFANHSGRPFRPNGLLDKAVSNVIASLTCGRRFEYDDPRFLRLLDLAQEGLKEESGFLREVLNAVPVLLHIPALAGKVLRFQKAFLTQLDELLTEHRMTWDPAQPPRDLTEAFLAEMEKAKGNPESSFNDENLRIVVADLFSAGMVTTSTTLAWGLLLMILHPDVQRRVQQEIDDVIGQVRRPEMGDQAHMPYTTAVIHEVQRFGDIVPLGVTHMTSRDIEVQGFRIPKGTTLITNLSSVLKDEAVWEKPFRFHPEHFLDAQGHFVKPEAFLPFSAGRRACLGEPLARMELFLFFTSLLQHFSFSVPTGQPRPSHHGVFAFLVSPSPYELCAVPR
# [6] = biological target: Glycogen synthase kinase-3 beta (Homo sapiens, UniProt P49841); assay: Inhibition of Human GSK-3 beta Activity Measured in Biochemical System Using Microfluidics - 2063-05_Inhibitor_Dose_DryPowder_Activity_Set2. [Related pubchem assays (depositor defined):AID2709]
# Glycogen synthase kinase-3 beta, sequence (P49841 whole entry): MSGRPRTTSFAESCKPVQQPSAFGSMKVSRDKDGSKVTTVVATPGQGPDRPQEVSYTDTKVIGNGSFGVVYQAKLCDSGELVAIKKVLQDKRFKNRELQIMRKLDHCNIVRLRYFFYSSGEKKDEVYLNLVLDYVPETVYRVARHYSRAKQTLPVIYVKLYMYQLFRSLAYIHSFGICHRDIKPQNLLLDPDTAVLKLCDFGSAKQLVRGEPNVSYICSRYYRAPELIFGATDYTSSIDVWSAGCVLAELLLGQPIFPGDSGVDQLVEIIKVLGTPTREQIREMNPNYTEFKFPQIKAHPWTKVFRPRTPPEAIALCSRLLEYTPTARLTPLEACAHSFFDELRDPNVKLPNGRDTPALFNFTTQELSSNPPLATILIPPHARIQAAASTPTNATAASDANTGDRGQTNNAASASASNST
# Caspase-3 = biological target: T4, Caspase-3 (Homo sapiens, UniProt P42574); assay: caspase-3 inhibitors as off-family protease, SAR follow-up, selectivity assay for SENP protease inhibitor project, biochemical, luminescence, set 2 (AID 588599); type: functional
# T4 sequence (P42574 whole entry): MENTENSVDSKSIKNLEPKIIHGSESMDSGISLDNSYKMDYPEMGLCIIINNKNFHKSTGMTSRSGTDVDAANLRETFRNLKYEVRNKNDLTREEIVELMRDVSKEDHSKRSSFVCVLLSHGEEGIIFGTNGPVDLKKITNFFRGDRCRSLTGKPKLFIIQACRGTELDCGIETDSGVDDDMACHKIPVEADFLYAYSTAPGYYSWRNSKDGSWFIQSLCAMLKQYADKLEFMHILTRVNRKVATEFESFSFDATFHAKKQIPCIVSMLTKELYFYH
# [7] = biological target: T5, Sentrin-specific protease 6 (Homo sapiens, UniProt Q9GZR1); assay: SENP6 protease inhibitors, SAR follow-up, biochemical, luminescence, set 2 (AID 588598); type: functional
# T5 sequence (Q9GZR1 whole entry): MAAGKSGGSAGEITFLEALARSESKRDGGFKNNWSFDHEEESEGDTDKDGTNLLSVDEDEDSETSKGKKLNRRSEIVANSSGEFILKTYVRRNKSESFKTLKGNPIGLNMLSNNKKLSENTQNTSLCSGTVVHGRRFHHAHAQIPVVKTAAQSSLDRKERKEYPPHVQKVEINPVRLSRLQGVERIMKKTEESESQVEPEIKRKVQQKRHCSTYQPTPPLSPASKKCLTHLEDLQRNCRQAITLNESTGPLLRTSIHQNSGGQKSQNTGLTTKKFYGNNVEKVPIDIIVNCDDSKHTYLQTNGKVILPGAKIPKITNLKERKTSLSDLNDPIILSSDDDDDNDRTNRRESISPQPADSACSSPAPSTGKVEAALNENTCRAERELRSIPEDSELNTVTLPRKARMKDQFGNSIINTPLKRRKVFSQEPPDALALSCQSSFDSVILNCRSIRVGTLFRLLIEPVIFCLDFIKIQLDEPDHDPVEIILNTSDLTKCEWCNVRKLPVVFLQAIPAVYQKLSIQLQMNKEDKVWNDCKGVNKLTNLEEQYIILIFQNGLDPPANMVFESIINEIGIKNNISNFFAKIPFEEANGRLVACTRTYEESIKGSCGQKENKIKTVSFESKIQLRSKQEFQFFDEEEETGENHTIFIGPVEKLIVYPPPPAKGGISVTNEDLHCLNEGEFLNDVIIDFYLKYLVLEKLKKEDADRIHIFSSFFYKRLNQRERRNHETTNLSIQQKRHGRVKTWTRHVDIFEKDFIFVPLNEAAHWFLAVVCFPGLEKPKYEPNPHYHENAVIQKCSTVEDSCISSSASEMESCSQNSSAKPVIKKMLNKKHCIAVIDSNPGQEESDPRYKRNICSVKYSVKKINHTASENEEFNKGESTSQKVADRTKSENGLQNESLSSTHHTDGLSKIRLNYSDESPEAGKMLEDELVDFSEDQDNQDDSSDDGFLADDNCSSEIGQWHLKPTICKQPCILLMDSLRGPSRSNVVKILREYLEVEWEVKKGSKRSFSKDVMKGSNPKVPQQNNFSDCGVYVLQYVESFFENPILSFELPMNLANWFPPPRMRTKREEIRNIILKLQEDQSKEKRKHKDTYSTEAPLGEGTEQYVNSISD
# [8] = biological target: T6, Sentrin-specific protease 8 (Homo sapiens, UniProt Q96LD8); assay: SENP8 protease inhibitors, SAR follow-up, biochemical, luminescence, set 2 (AID 588601); type: functional
# T6 sequence (Q96LD8 whole entry): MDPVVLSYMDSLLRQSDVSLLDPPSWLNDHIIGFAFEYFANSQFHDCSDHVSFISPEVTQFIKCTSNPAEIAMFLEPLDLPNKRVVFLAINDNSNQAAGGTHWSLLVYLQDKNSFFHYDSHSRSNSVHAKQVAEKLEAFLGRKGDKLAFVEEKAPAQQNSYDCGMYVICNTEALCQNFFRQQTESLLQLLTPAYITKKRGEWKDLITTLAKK
# [9] = biological target: T7, Sentrin-specific protease 7 (Homo sapiens, UniProt Q9BQF6); assay: SENP7 protease inhibitors, SAR follow-up, biochemical, luminescence, set 2 (AID 588600); type: functional
# T7 sequence (Q9BQF6 whole entry): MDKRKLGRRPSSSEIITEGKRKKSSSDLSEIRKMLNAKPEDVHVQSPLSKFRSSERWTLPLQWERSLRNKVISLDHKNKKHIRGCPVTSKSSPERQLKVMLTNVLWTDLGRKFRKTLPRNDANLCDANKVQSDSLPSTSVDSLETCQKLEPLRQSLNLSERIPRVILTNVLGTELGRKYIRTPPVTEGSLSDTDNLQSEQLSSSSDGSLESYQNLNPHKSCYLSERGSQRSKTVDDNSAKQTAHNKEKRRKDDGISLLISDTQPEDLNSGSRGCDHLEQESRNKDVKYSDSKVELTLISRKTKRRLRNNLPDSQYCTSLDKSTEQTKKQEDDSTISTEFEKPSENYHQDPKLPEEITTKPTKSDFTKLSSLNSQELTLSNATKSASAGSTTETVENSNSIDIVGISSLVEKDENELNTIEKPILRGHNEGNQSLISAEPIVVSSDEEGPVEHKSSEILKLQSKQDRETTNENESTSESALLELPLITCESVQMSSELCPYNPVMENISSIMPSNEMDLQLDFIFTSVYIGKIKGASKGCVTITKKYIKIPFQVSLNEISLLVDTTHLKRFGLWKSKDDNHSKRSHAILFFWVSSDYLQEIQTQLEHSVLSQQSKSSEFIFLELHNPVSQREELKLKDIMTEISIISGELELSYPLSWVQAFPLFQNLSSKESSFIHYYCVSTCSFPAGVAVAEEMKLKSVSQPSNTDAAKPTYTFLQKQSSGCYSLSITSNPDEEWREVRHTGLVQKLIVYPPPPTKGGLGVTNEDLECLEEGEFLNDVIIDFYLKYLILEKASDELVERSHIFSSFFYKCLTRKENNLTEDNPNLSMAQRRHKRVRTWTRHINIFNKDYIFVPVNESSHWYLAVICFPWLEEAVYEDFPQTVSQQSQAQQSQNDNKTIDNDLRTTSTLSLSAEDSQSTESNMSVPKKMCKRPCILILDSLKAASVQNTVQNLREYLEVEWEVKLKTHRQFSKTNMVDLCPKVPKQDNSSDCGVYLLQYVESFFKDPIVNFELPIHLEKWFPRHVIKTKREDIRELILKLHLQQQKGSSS
# Aurora kinase B = Aurora kinase B (Homo sapiens, UniProt Q96GD4); type: functional
# Aurora kinase B, sequence (Q96GD4 whole entry): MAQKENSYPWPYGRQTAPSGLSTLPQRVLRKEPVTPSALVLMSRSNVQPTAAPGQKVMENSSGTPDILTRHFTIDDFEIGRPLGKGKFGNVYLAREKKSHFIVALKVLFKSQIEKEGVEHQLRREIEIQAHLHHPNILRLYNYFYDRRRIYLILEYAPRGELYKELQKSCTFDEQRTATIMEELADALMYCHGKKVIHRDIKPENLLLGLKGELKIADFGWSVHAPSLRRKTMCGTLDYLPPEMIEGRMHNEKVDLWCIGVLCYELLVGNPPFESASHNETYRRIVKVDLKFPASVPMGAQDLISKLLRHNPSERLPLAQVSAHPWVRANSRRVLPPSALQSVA
# [10] = biological target: Vascular endothelial growth factor receptor 2 (Homo sapiens, UniProt P35968); type: functional
# Vascular endothelial growth factor receptor 2, sequence (P35968 whole entry): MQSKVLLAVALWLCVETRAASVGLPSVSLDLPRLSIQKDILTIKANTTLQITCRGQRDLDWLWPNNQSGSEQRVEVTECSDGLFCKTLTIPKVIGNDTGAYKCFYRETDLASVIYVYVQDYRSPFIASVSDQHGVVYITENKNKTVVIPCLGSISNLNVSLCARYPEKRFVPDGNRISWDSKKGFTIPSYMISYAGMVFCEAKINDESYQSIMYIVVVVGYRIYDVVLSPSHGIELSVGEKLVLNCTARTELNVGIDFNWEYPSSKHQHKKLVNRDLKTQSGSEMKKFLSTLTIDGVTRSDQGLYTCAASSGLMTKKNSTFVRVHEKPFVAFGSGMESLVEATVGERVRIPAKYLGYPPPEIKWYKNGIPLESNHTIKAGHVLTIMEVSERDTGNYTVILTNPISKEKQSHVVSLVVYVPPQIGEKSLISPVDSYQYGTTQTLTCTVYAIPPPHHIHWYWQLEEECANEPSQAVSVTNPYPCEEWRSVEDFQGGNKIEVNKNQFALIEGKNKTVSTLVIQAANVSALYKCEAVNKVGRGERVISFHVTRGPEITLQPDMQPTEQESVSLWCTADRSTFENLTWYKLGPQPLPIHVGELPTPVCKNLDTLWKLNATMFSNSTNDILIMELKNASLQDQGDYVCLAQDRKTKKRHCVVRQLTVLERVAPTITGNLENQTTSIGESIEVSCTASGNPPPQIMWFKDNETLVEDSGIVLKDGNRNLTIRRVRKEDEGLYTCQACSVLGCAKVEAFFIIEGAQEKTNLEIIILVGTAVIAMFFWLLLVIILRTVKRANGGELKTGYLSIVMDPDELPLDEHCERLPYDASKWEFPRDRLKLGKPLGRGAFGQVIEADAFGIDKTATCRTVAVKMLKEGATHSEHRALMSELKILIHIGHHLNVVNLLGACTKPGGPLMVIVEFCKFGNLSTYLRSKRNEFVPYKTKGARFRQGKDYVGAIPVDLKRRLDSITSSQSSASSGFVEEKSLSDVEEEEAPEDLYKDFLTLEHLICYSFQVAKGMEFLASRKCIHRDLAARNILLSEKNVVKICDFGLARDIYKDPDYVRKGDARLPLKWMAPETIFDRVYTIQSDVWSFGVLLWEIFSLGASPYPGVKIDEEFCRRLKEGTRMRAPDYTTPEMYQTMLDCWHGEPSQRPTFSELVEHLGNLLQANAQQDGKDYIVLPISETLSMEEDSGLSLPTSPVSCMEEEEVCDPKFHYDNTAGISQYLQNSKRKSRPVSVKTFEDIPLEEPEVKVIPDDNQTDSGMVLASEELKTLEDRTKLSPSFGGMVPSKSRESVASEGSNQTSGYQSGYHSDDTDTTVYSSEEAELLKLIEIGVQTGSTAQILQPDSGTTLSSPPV
smiles,measurement,setting,value
CCC1=Nc2ccc(Br)cc2C(c2ccccc2)N1CC(=O)OC (centres undefined),EC50,[1],14.3 µM (active)
same,IC50,[2],13.2 µM (not active)
same,IC50,[3],> 35 µM (not active)
C[C@@H]1O[C@@H](O[C@@H]2C(=O)c3c(O)cc(O)cc3O[C@H]2c2ccc(O)c(O)c2)[C@H](O)[C@H](O)[C@H]1O,AC50,[4],10.2 µM (active)
Cn1c(SCc2nnc(-c3ccc(F)cc3)o2)nnc1C1COc2ccccc2O1 (centres undefined),AC50,[5],1.33 µM (active)
same,AC50,Cytochrome P450 2C9,inconclusive
same,AC50,Cytochrome P450 2D6,5.01 µM (inconclusive)
same,AC50,[6],0.7 µM (active)
Cc1ccc(-c2cc(CNC(=O)C(=O)c3c[nH]c4ccccc34)no2)cc1,IC50,Caspase-3,> 99 µM (inactive)
same,IC50,[7],> 99 µM (inactive)
same,IC50,[8],> 99 µM (inactive)
same,IC50,[9],> 99 µM (inactive)
COc1ccc(-c2cc(-c3ccccc3)nc3ncnc(NC(=O)COCC(=O)O)c23)cc1,Ki,Aurora kinase B,1.26 µM (active)
same,Ki,[10],1.26 µM (active)
